Laboratory results: ChEMBL document CHEMBL1909046, “DrugMatrix in vitro pharmacology data”

How the values were obtained:
[1] = DRUGMATRIX: Serotonin (5-Hydroxytryptamine) 5-HT3 radioligand binding (ligand: [3H] GR-65630); assay type: cell membranes, Membrane; settings: hek293; Not Active = under 50% inhibition at 10 µM
[2] = biological target: 5-hydroxytryptamine receptor 6 (Homo sapiens, UniProt P50406); assay type: cell membranes, HeLa, Membrane; settings: hela; note: in other assays of this panel Not Active means under 50% inhibition at 10 µM
[3] = biological target: T1, Cholecystokinin receptor type A (Homo sapiens, UniProt P32238); assay type: cell membranes, Membrane; settings: 1321-n1; note: in other assays of this panel Not Active means under 50% inhibition at 10 µM
T1 sequence (P32238 whole entry): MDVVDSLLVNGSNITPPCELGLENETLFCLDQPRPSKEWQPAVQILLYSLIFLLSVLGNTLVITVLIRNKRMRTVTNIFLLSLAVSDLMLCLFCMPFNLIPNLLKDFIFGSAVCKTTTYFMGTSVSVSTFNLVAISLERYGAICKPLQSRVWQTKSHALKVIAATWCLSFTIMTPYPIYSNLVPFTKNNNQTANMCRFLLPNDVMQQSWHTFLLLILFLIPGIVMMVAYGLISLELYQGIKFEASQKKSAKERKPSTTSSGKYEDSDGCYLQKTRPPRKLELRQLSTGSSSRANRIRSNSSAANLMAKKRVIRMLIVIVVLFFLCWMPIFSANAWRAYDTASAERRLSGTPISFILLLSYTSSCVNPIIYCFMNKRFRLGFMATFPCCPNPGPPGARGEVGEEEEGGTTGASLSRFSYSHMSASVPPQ

[4] = DRUGMATRIX: Glutamate, Kainate radioligand binding (ligand: [3H] Kainic acid); assay type: cell membranes, Rattus norvegicus, Wistar, Brain, Membrane; settings: Not Active = under 50% inhibition at 10 µM
Melanocortin receptor 4 = Melanocortin receptor 4 (Homo sapiens, UniProt P32245); assay type: cell membranes, Membrane; settings: hek293; note: in other assays of this panel Not Active means under 50% inhibition at 10 µM
[5] = biological target: T2, Muscarinic acetylcholine receptor M4 (Homo sapiens, UniProt P08173); assay type: cell membranes, CHO-K1, Membrane; settings: cho-k1; note: in other assays of this panel Not Active means under 50% inhibition at 10 µM
T2 sequence (P08173 whole entry): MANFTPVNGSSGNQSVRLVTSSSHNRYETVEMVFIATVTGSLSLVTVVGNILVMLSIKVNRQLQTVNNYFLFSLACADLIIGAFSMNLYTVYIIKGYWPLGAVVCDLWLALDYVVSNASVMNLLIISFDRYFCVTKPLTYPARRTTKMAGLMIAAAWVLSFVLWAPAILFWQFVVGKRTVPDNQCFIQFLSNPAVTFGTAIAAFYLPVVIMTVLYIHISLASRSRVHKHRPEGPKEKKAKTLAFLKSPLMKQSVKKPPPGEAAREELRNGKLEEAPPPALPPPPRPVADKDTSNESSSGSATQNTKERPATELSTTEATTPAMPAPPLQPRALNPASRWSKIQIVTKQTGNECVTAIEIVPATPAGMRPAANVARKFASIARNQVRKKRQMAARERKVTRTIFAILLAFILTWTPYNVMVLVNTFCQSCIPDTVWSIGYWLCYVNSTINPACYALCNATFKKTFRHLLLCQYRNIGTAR

[6] = DRUGMATRIX: Phosphodiesterase PDE4 enzyme inhibition (substrate: [3H]cAMP + cAMP); settings: u-937; Not Active = under 50% inhibition at 10 µM

Chain of Melanocortin receptor 4 (P32245 whole entry): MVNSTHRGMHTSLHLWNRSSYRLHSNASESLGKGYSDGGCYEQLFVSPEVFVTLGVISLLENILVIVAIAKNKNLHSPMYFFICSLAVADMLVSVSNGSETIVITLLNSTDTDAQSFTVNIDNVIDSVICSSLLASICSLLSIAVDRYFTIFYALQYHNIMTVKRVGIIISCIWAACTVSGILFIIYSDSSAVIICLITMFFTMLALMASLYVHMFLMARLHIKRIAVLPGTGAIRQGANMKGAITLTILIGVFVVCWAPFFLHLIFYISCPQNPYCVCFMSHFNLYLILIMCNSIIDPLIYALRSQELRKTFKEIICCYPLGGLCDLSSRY
Chain of 5-hydroxytryptamine receptor 6 (P50406 whole entry): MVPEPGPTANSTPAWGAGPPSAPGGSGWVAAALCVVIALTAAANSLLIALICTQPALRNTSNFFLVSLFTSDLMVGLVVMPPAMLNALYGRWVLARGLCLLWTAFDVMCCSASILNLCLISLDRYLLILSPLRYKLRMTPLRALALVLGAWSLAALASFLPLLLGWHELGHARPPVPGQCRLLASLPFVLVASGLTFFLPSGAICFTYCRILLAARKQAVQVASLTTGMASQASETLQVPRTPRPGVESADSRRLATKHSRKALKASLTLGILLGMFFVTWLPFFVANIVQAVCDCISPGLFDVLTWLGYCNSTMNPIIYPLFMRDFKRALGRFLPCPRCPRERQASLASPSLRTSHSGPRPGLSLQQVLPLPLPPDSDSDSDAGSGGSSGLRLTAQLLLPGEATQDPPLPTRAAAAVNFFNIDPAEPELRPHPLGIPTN

COc1cc([C@@H]2c3cc4c(cc3[C@H](O)[C@H]3COC(=O)[C@H]23)OCO4)cc(OC)c1OC [PODOFILOX]
Not Active: IC50 [1] | Ki [1] | IC50 [2] | IC50 [3] | IC50 [4] | Ki [4] | IC50 (Melanocortin receptor 4) | IC50 [5] | IC50 [6] | Ki [6]

COC(=O)C[C@](O)(CCC(C)(C)O)C(=O)O[C@@H]1C(OC)=C[C@]23CCCN2CCc2cc4c(cc2[C@H]13)OCO4 [HARRINGTONINE]
Not Active: IC50 [1] | Ki [1] | IC50 [2] | IC50 [3] | IC50 [4] | Ki [4] | IC50 (Melanocortin receptor 4) | IC50 [5] | IC50 [6] | Ki [6]

CCCCCCNC(=O)n1cc(F)c(=O)[nH]c1=O [CARMOFUR]
Not Active: IC50 [1] | Ki [1] | IC50 [2] | IC50 [3] | IC50 [4] | Ki [4] | IC50 (Melanocortin receptor 4) | IC50 [5] | IC50 [6] | Ki [6]

O=c1[nH]cnc2c1ncn2[C@H]1CC[C@@H](CO)O1 [DIDANOSINE]
Not Active: IC50 [1] | Ki [1] | IC50 [2] | IC50 [3] | IC50 [4] | Ki [4] | IC50 (Melanocortin receptor 4) | IC50 [5] | IC50 [6] | Ki [6]

O=C(O)CO [GLYCOLIC ACID]
Not Active: IC50 [1] | Ki [1] | IC50 [2] | IC50 [3] | IC50 [4] | Ki [4] | IC50 (Melanocortin receptor 4) | IC50 [5] | IC50 [6] | Ki [6]

CC(C)Cc1ccc([C@H](C)C(=O)O)cc1 [DEXIBUPROFEN]
Not Active: IC50 [1] | Ki [1] | IC50 [2] | IC50 [3] | IC50 [4] | Ki [4] | IC50 (Melanocortin receptor 4) | IC50 [5] | IC50 [6] | Ki [6]

CC(C)(C#N)c1cc(Cn2cncn2)cc(C(C)(C)C#N)c1 [ANASTROZOLE]
Not Active: IC50 [1] | Ki [1] | IC50 [2] | IC50 [3] | IC50 [4] | Ki [4] | IC50 (Melanocortin receptor 4) | IC50 [5] | IC50 [6] | Ki [6]

O=C1c2ccccc2C(=O)C1c1ccccc1 [PHENINDIONE]
Not Active: IC50 [1] | Ki [1] | IC50 [2] | IC50 [3] | IC50 [4] | Ki [4] | IC50 (Melanocortin receptor 4) | IC50 [5] | IC50 [6] | Ki [6]

NC(=O)NC(=O)Cc1ccccc1 [PHENACEMIDE]
Not Active: IC50 [1] | Ki [1] | IC50 [2] | IC50 [3] | IC50 [4] | Ki [4] | IC50 (Melanocortin receptor 4) | IC50 [5] | IC50 [6] | Ki [6]

O=C(NCCN1CCOCC1)c1ccc(Cl)cc1 [MOCLOBEMIDE]
Not Active: IC50 [1] | Ki [1] | IC50 [2] | IC50 [3] | IC50 [4] | Ki [4] | IC50 (Melanocortin receptor 4) | IC50 [5] | IC50 [6] | Ki [6]

OC[C@H]1O[C@@H]2O[C@H]3[C@H](O)[C@@H](O)[C@@H](O[C@H]4[C@H](O)[C@@H](O)[C@@H](O[C@H]5[C@H](O)[C@@H](O)[C@@H](O[C@H]6[C@H](O)[C@@H](O)[C@@H](O[C@H]7[C@H](O)[C@@H](O)[C@@H](O[C@H]1[C@H](O)[C@H]2O)O[C@@H]7CO)O[C@@H]6CO)O[C@@H]5CO)O[C@@H]4CO)O[C@@H]3CO [ALFADEX]
Not Active: IC50 [1] | Ki [1] | IC50 [2] | IC50 [3] | IC50 [4] | Ki [4] | IC50 (Melanocortin receptor 4) | IC50 [5] | IC50 [6] | Ki [6]

ClC1=C(Cl)[C@]2(Cl)[C@@H]3[C@@H]4C[C@@H]([C@H]5O[C@@H]45)[C@@H]3[C@@]1(Cl)C2(Cl)Cl [DIELDRIN]
Not Active: IC50 [1] | Ki [1] | IC50 [2] | IC50 [3] | IC50 [4] | Ki [4] | IC50 (Melanocortin receptor 4) | IC50 [5] | IC50 [6] | Ki [6]

O=c1[nH]c2ccccc2c2ccccc12
Not Active: IC50 [1] | Ki [1] | IC50 [2] | IC50 [3] | IC50 [4] | Ki [4] | IC50 (Melanocortin receptor 4) | IC50 [5] | IC50 [6] | Ki [6]

CCC1(c2ccccc2)C(=O)NC(=O)NC1=O [PHENOBARBITAL]
Not Active: IC50 [1] | Ki [1] | IC50 [2] | IC50 [3] | IC50 [4] | Ki [4] | IC50 (Melanocortin receptor 4) | IC50 [5] | IC50 [6] | Ki [6]

Nc1ccc(C(=O)O)c(O)c1 [AMINOSALICYLIC ACID]
Not Active: IC50 [1] | Ki [1] | IC50 [2] | IC50 [3] | IC50 [4] | Ki [4] | IC50 (Melanocortin receptor 4) | IC50 [5] | IC50 [6] | Ki [6]
